# Entries after “also recorded” stand apart in the source; their conditions may differ.
# What was measured:
# [1] = Side effects observed in SNI mice after intraperitoneal injection
# [2] = tested on: subjects with painful diabetic peripheral neuropathy; conditions: randomised, placebo-controlled, double-blind clinical study; cited from earlier work
# [3] = tested on: SNI-induced neuropathic pain C57/BJ6 mice; assay: SNI-induced neuropathic pain mouse model, mechanical pain threshold (PWT) by Von Frey; assay type: in vivo
# Method: C57/BJ6 mice aged 5-6 weeks were purchased from Shanghai SLAC Laboratory Animal Co., Ltd and fed for 6 months. After that, the mice were placed in a transparent plexiglass chamber on an iron support. 30 minutes later, the baseline mechanical threshold (paw withdrawal threshold, PWT) of the mice was detected by Von Frey (DanMicGlobal, CA, USA). The average threshold of the mice was 1.54+0.07 g (see FIG. 1). The spared nerve injury (SNI)-induced neuropathic pain C57/BJ6 mouse model was established according to Pertin, M et al (Pertin, M., Gosselin, RD., Decosterd, I. (2012). The Spared Nerve Injury Model of Neuropathic Pain. In: Luo, Z. (eds) Pain Research. Methods in Molecular Biology, vol 851. Humana Press). The SNI-induced neuropathic pain mice were measured for the mechanical pain threshold using Von Frey respectively at 2 weeks, 4 weeks and 6 weeks post operation.
# The mechanical pain threshold of mice was tested 1 hour after injection. […] Among them, the mice with poor response (ΔPWT≤ 0.2 g) accounted for 10% (2/20) of all tested mice.
# 20 μg/kg GNE-0439 and 90 μg/kg PF-04885614 were intraperitoneally injected into SNI mice at 6 weeks post operation. One hour later, the mechanical threshold of mice was measured using Von Frey.
# [4] = tested on: neuropathic pain patients; conditions: clinical use; cited from earlier work
compound,measurement,setting,value
COc1ccc(Cl)c(-c2ccc(NC(=O)c3ccnn3C)nc2N)c1 [PF-04531083],side effects,[1]; 10 mg/kg PF-04531083 (effective dose),obvious side effects such as sedation and weight loss; also recorded: significant side effects such as sedation and weight loss
Nc1n[nH]cc1-c1cc(Cl)ccc1Oc1cc(F)c(S(=O)(=O)Nc2cscn2)cc1Cl [PF-05089771],efficacy in treatment of diabetic neuropathic pain,[2],poor efficacy
same,mice with poor response (ΔPWT≤0.2 g),"[3]; 2 mg/kg i.p., 2 weeks post operation (2/20)",10%
same,mice with poor response (ΔPWT≤0.2 g),"[3]; 2 mg/kg i.p., 4 weeks post operation (10/24)",41.7%
same,mice with poor response (ΔPWT≤0.2 g),"[3]; 2 mg/kg i.p., 6 weeks post operation (16/28)",57.1%
same,increase of mechanical pain threshold (ΔPWT),"[3]; 2 mg/kg i.p., SNI mice 2 weeks post operation, 1 hour after injection",0.77 ± 0.10 g
same,increase of mechanical pain threshold (ΔPWT),"[3]; 2 mg/kg i.p., SNI mice 4 weeks post operation, 1 hour after injection",0.39 ± 0.07 g
same,increase of mechanical pain threshold (ΔPWT),"[3]; 2 mg/kg i.p., SNI mice 6 weeks post operation, 1 hour after injection",0.17 ± 0.03 g
same,fraction of total mice that poorly responded (ΔPWT≤0.2 g),"[3]; 2 mg/kg, 6 weeks post SNI operation (8/12, Table 1)",2/3
CC(C)C[C@H](CN)CC(=O)O [Pregabalin],accompanying side effects in patients,[4],"sedation effects (such as drowsiness, fatigue and dizziness)"
CC(C)(N)c1ncc(-c2ccc(OC(F)(F)F)cc2)[nH]1 [PF-04885614],mice with poor response (ΔPWT≤0.2 g),"[3]; 45 μg/kg i.p., 2 weeks post operation (2/18)",11.1%
same,threshold increase compared with the control group,"[3]; 45 μg/kg i.p., 4 weeks post operation",no statistically significant difference
same,mice with poor response (ΔPWT≤0.2 g),"[3]; 45 μg/kg i.p., 4 weeks post operation (10/19)",52.6%
same,mice with poor response (ΔPWT≤0.2 g),"[3]; 45 μg/kg i.p., 6 weeks post operation (13/17)",76.5%
same,increase of mechanical pain threshold (ΔPWT),"[3]; 45 μg/kg i.p., SNI mice 2 weeks post operation",0.86 ± 0.14 g
same,increase of mechanical pain threshold (ΔPWT),"[3]; 45 μg/kg i.p., SNI mice 4 weeks post operation",0.21 ± 0.04 g
same,increase of mechanical pain threshold (ΔPWT),"[3]; 45 μg/kg i.p., SNI mice 6 weeks post operation",0.10 ± 0.04 g
same,fraction of PF-05089771 poor responders that well responded,"[3]; 90 μg/kg PF-04885614, 6 weeks post SNI operation",half
CCCC1CCC(c2ccc(C(=O)N[C@H](C(=O)O)C(C)C)cc2)CC1 (stereo partly shown) [GNE-0439],ΔPWT,"[3]; single administration, 20 μg/kg i.p., SNI mice 6 weeks post operation, one hour after injection",0.77 ± 0.14 g
NCC1(CC(=O)O)CCCCC1 [Gabapentin],accompanying side effects in patients,[4],"sedation effects (such as drowsiness, fatigue and dizziness)"
same,effect on mechanical pain of SNI mice,"[3]; 100 mg/kg i.p., 6 weeks post operation",relieve effect
same,side effects,[1]; 100 mg/kg Gabapentin,sedative side effects

# From patent US12318369B2, “Analgesic and antipruritic pharmacertical composition and application thereof” (KEVICI (SHANGHAI) PHARMACEUTICAL CO., LTD., priority 2020, dated 2025)
